Here are results for seven compounds from PMC7763892, “Anti-Inflammatory Effect of Homo- and Heterodimers of Natural Enkephalinase Inhibitors in Experimental Colitis in Mice” (Molecules, 2020).

Data set [1] is described as follows: Stability in human plasma. In kind it is in vitro ADME. The note with it: RP-HPLC. The method, then:
Plasma-stability assays were performed, as described previously. The sample preparation and the analysis of peptide I were both performed in the same way as in our previous work. Peptides III and X were analyzed by RP-HPLC using a linear gradient of 20–80% B over 20 min with the same solvent system of 0.1% TFA in water (A) and 0.1% TFA in acetonitrile (B), with a flow rate of 1.5 mL/min. All measurements were performed in triplicate.

Data set [2] is described as follows: Solubility in Tris-HCl buffer. It is filed as physicochemical. The note with it: Tris-HCl buffer + 3% DMSO. The method, then:
The designed dimers (peptides IX–XI) were sparingly soluble in Tris-HCl buffer. To improve their solubility in Tris-HCl buffer, 3% DMSO was added to the samples. […] In the time of analysis of spinorphin (III) and peptide IV, products with the same retention time as the analyzed substrate, were created, which made determining the inhibitory activity of the investigated peptides against NEP impossible.

Data set [3] has as its target neutral endopeptidase (NEP) (Homo sapiens, UniProt P08473). The note with it: Tris-HCl buffer 50 mM, pH 7.4, 37 °C, RP-HPLC, mean ± SEM, ref Sobocińska et al. [24], cited from earlier work.
The next data set deals with TNBS-induced colitis. As to conditions: mouse model; cited from earlier work.
The conditions of data set [4]: cited from earlier work.
The conditions of data set [5]: cited from earlier work. The protocol:
In stability assays in human plasma, peptide X was included because this compound was selected for in vivo assays of the anti-inflammatory activity. […] After 2 h of incubation, the levels of peptide X were, respectively, 10.3 and ...
This is another data set of the same source.

Where a SMILES comes first, the peptide text is derived from it.

Sequence of neutral endopeptidase (NEP) (P08473 whole entry, species assumed): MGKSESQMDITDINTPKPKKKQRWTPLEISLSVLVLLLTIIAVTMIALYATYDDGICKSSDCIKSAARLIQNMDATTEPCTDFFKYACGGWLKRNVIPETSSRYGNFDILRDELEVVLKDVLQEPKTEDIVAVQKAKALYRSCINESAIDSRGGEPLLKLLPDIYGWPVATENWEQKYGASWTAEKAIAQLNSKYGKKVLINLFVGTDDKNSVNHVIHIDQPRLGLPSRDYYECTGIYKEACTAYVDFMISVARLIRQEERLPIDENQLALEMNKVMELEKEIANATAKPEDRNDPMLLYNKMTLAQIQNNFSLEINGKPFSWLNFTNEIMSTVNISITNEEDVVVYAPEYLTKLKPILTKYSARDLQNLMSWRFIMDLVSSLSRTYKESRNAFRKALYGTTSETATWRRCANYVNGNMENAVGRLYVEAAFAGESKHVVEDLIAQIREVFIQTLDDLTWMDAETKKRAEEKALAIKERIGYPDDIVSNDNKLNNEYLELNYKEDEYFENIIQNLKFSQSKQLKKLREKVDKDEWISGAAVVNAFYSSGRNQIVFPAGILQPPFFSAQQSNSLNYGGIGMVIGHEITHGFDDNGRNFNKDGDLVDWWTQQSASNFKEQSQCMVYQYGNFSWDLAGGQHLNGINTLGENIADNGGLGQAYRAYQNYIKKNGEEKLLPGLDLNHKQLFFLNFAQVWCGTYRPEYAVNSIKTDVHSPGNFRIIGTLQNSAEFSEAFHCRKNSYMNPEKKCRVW

In the case of `CC(C)C[C@H](N)C(=O)N[C@H](C(=O)N[C@H](C(=O)N[C@@H](Cc1ccc(O)cc1)C(=O)N1CCC[C@H]1C(=O)N[C@@H](Cc1c[nH]c2ccccc12)C(=O)N[C@H](C(=O)O)[C@@H](C)O)C(C)C)C(C)C` [III, Spinorphin (Leu-Val-Val-Tyr-Pro-Trp-Thr)] (H-LVVYPWT-OH), the “% of remaining peptide in human plasma after 4 h” value in data set [1] (4 h incubation, triplicate) is on record as “completely decomposed”.

For the compound `CC(C)C[C@H](NC(=O)[C@@H](N)CSSC[C@H](N)C(=O)N[C@@H](CC(C)C)C(=O)N[C@H](C(=O)N[C@H](C(=O)N[C@@H](Cc1ccc(O)cc1)C(=O)N1CCC[C@H]1C(=O)N[C@@H](Cc1c[nH]c2ccccc12)C(=O)N[C@H](C(=O)O)[C@@H](C)O)C(C)C)C(C)C)C(=O)N[C@H](C(=O)N[C@H](C(=O)N[C@@H](Cc1ccc(O)cc1)C(=O)N1CCC[C@H]1C(=O)N[C@@H](Cc1c[nH]c2ccccc12)C(=O)N[C@H](C(=O)O)[C@@H](C)O)C(C)C)C(C)C` [IX, (Cys-Leu-Val-Val-Tyr-Pro-Trp-Thr)2] (HELM PEPTIDE1{C.L.V.V.Y.P.W.T}|PEPTIDE2{C.L.V.V.Y.P.W.T}$PEPTIDE1,PEPTIDE2,1:R3-1:R3$$$V2.0), in data set [2], the “solubility in Tris-HCl buffer with 3% DMSO” value was “did not help to dissolve”.

On to `CC(C)C[C@H](NC(=O)[C@@H](N)CSSC[C@H](N)C(=O)N[C@@H](CCC(N)=O)C(=O)N[C@@H](Cc1c[nH]cn1)C(=O)N[C@@H](CC(N)=O)C(=O)N1CCC[C@H]1C(=O)N[C@@H](CCCNC(=N)N)C(=O)O)C(=O)N[C@H](C(=O)N[C@H](C(=O)N[C@@H](Cc1ccc(O)cc1)C(=O)N1CCC[C@H]1C(=O)N[C@@H](Cc1c[nH]c2ccccc12)C(=O)N[C@H](C(=O)O)[C@@H](C)O)C(C)C)C(C)C` [Peptide X, Cys-Gln-His-Asn-Pro-Arg │ Cys-Leu-Val-Val-Tyr-Pro-Trp-Thr] (HELM PEPTIDE1{C.L.V.V.Y.P.W.T}|PEPTIDE2{C.Q.H.N.P.R}$PEPTIDE1,PEPTIDE2,1:R3-1:R3$$$V2.0), for which the “level of peptide in human plasma after 2 h relative to spinorphin” value in data set [1] (2 h incubation, times higher) was 4 times. For the same compound, in data set [1] (4 h incubation, triplicate, read-out: % of remaining peptide in human plasma after 4 h), the share remaining at 4 h was determined as 42%. Also, the share remaining at 24 h in data set [1] (24 h incubation, triplicate, read-out: % of remaining peptide in human plasma after 24 h) was 8%.

Regarding “Gln-His-Asn-Pro-Arg [Peptide I, Sialorphin (Gln-His-Asn-Pro-Arg)]”, the “1000 × k, degradation rate of Met-enkephalin incubated with NEP and peptide” value in data set [3] (without inhibitor 25.35 ± 1.05) is on record as 8.84 ± 0.27 ** 1/min. For the same compound, in data set [3] (without inhibitor 27 ± 1), the “t1/2, half-life of Met-enkephalin incubated with NEP and peptide” value was 78 ± 2 min.

In the case of Opiorphin (Gln-Arg-Phe-Ser-Arg) [II], the “anti-inflammatory effect in TNBS-induced colitis” value (“anti-inflammatory effect” below) in the data set on TNBS-induced colitis is reported as “lack of a anti-inflammatory effect”. Besides, in data set [4], the “amount that disappears in human plasma because of potential complex formation” value is given as 12% and the “metabolic half-life in human plasma” value is given as 5 min. Also, in data set [4] (maximum), the “disappearance in human plasma by cyclization of Gln1 to Glp” value was ≤ 16%.

Turning to Pal-KKQRFSR, in the data set with TNBS-induced colitis, the “anti-inflammatory effect” value is on record as “lack of a anti-inflammatory effect”.

On to “Sialorphin (Gln-His-Asn-Pro-Arg) [Peptide I]”, for which the “anti-inflammatory effect” value in the data set on TNBS-induced colitis was “potent anti-inflammatory activity”. Besides, the “remaining peptide in human plasma after 4 h” value in data set [5] (4 h incubation, RP-HPLC, ref Sobocinska et al. [21]) is on record as “completely decomposed”. Also, the “stability in human plasma” value in data set [5] was “sensitive to degradation”.
